Experimental data published in ChEMBL document CHEMBL5370681, “Lipid Tales: Optimizing Arylomycin Membrane Anchors” (ACS Med Chem Lett, 2023).
Values after ≈ are worked out from the molar mass of the structure shown.

Legend:
[1] = molecular target: Signal peptidase I (Escherichia coli K-12) (UniProt P00803); assay: Inhibition of LepB in Escherichia coli IMP assessed as antibacterial activity by measuring reduction in bacterial growth incubated for 18 hrs by two-fold serial dilution method
Escherichia coli [2] = assay: Antibacterial activity against Escherichia coli 25922 incubated for 18 hrs by two-fold serial dilution method; assay type: functional
Escherichia coli [3] = assay: Antibacterial activity against Escherichia coli 25922 incubated for 18 hrs in presence of 50% mouse serum by two-fold serial dilution method; assay type: functional
[4] = Unbound fraction in human plasma at 5 uM measured after 24 hrs by LC-MS/MS analysis; assay type: ADME, cell-free

Sequence of Signal peptidase I (Escherichia coli K-12) (P00803 whole entry): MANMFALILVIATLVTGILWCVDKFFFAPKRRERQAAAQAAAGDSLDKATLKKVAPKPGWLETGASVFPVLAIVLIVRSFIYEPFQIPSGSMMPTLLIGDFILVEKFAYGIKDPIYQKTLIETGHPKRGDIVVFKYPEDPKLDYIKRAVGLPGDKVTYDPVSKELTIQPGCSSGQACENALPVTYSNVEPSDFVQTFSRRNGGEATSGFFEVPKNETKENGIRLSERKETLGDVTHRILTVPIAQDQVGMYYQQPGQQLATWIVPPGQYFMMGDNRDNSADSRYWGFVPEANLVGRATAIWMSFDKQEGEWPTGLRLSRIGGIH

| Compound | MIC [1] [µg/mL] | MIC (Escherichia coli [2]) [µg/mL] | MIC (Escherichia coli [3]) [µg/mL] | fraction unbound at 24 h, 5 µM [4] |
| --- | --- | --- | --- | --- |
| Cc1nc(-c2ccc(C(C)(C)C)cc2)ncc1C(=O)N[C@@H](CCN)C(=O)N(C)[C@@H]1C(=O)N[C@@H](C)C(=O)N[C@H](C(=O)NCC#N)Cc2ccc(OCCN)c(c2)-c2cc1ccc2OCCN | 0.004 (≈ 0.00449 µM) | 0.14 (≈ 0.157 µM) | 0.2 | 0.23 |
| Cc1cc(-c2ccc(CC(C)C)cc2)ccc1C(=O)N[C@@H](CCN)C(=O)N(C)[C@@H]1C(=O)N[C@@H](C)C(=O)N[C@H](C(=O)NCC#N)Cc2ccc(OCCN)c(c2)-c2cc1ccc2OCCN | 0.006 (≈ 0.00676 µM) | 0.08 (≈ 0.0901 µM) | 0.83 | 0.001 |
| Cc1cc(-c2ccc(-c3ccccc3)cc2)ccc1C(=O)N[C@@H](CCN)C(=O)N(C)[C@@H]1C(=O)N[C@@H](C)C(=O)N[C@H](C(=O)NCC#N)Cc2ccc(OCCN)c(c2)-c2cc1ccc2OCCN | 0.043 (≈ 0.0474 µM) | 0.22 (≈ 0.242 µM) | 1.5 | 0.017 |
| Cc1cc(-c2ccc(C(C)(C)C)cc2)nc(C)c1C(=O)N[C@@H](CCN)C(=O)N(C)[C@@H]1C(=O)N[C@@H](C)C(=O)N[C@H](C(=O)NCC#N)Cc2ccc(OCCN)c(c2)-c2cc1ccc2OCCN | 0.004 (≈ 0.00443 µM) | 0.18 (≈ 0.199 µM) | 0.12 | 0.083 |
| Cc1cc(-c2ccc(C(C)(C)C)cc2)cc(C)c1C(=O)N[C@@H](CCN)C(=O)N(C)[C@@H]1C(=O)N[C@@H](C)C(=O)N[C@H](C(=O)NCC#N)Cc2ccc(OCCN)c(c2)-c2cc1ccc2OCCN | 0.005 (≈ 0.00554 µM) | 0.17 (≈ 0.188 µM) | 0.34 |  |
| Cc1cc(-c2ccc(C(C)(C)C)cc2)ccc1C(=O)N[C@@H](CCN)C(=O)N(C)[C@@H]1C(=O)N[C@@H](C)C(=O)N[C@H](C(=O)NCC#N)Cc2ccc(OCCN)c(c2)-c2cc1ccc2OCCN | 0.011 (≈ 0.0124 µM) | 0.12 (≈ 0.135 µM) | 0.44 | 0.001 |
| Cc1cc(-c2ccc(C(F)(F)F)cc2)ccc1C(=O)N[C@@H](CCN)C(=O)N(C)[C@@H]1C(=O)N[C@@H](C)C(=O)N[C@H](C(=O)NCC#N)Cc2ccc(OCCN)c(c2)-c2cc1ccc2OCCN | 0.014 (≈ 0.0156 µM) | 0.41 (≈ 0.456 µM) | 1.4 | 0.078 |
| CC(C)CCc1ccc(-c2ccc(C(=O)N[C@@H](CCN)C(=O)N(C)[C@@H]3C(=O)N[C@@H](C)C(=O)N[C@H](C(=O)NCC#N)Cc4ccc(OCCN)c(c4)-c4cc3ccc4OCCN)cc2)cc1 | 0.015 (≈ 0.0169 µM) | 0.18 (≈ 0.203 µM) | 3.8 |  |
| Cc1nc(-c2ccc(C(C)(C)C)cc2)nc(N)c1C(=O)N[C@@H](CCN)C(=O)N(C)[C@@H]1C(=O)N[C@@H](C)C(=O)N[C@H](C(=O)NCC#N)Cc2ccc(OCCN)c(c2)-c2cc1ccc2OCCN | 0.005 (≈ 0.00552 µM) | 0.11 (≈ 0.122 µM) | 0.11 | 0.12 |
| Cc1nc(-c2ccc(C(C)(C)C)cc2)c(N)cc1C(=O)N[C@@H](CCN)C(=O)N(C)[C@@H]1C(=O)N[C@@H](C)C(=O)N[C@H](C(=O)NCC#N)Cc2ccc(OCCN)c(c2)-c2cc1ccc2OCCN | 0.021 (≈ 0.0232 µM) | 0.34 (≈ 0.376 µM) | 0.12 |  |

Results, then the molecule that gave them:

| MIC [1] [µg/mL] | MIC (Escherichia coli [2]) [µg/mL] | MIC (Escherichia coli [3]) [µg/mL] | fraction unbound at 24 h, 5 µM [4] | Compound |
| --- | --- | --- | --- | --- |
| 0.007 (≈ 0.00854 µM) | 0.98 (≈ 1.2 µM) | 7.5 | 0.03 | CCCCCCCCCCCC(=O)N[C@@H](CCN)C(=O)N(C)[C@@H]1C(=O)N[C@@H](C)C(=O)N[C@H](C(=O)NCC#N)Cc2ccc(OCCN)c(c2)-c2cc1ccc2OCCN |
| 0.023 (≈ 0.0276 µM) | 3 (≈ 3.61 µM) | 2 | 0.34 | Cc1cc(-c2ccccc2)ccc1C(=O)N[C@@H](CCN)C(=O)N(C)[C@@H]1C(=O)N[C@@H](C)C(=O)N[C@H](C(=O)NCC#N)Cc2ccc(OCCN)c(c2)-c2cc1ccc2OCCN |
| 0.1 (≈ 0.126 µM) | 15 (≈ 18.9 µM) | 51 |  | CCCCCCCCCC(=O)N[C@@H](CCN)C(=O)N(C)[C@@H]1C(=O)N[C@@H](C)C(=O)N[C@H](C(=O)NCC#N)Cc2ccc(OCCN)c(c2)-c2cc1ccc2OCCN |
| 0.023 (≈ 0.0285 µM) | 3.8 (≈ 4.71 µM) | 15 | 0.09 | CCCCCCCCCCC(=O)N[C@@H](CCN)C(=O)N(C)[C@@H]1C(=O)N[C@@H](C)C(=O)N[C@H](C(=O)NCC#N)Cc2ccc(OCCN)c(c2)-c2cc1ccc2OCCN |
| 0.007 (≈ 0.00839 µM) | 0.23 (≈ 0.276 µM) | 3.8 | 0.01 | CCCCCCCCCCCCC(=O)N[C@@H](CCN)C(=O)N(C)[C@@H]1C(=O)N[C@@H](C)C(=O)N[C@H](C(=O)NCC#N)Cc2ccc(OCCN)c(c2)-c2cc1ccc2OCCN |
